Experiments:
Format in all cases: biochemical
CDK1/Cyclin B = target: T1, CDK1/Cyclin B (Homo sapiens, UniProt P06493); test: Enzymatic assay for CDK1 (LANCE Ultra kinase assay, FRET based); conditions: ATP at Km; read-out: CDK1 enzymatic activity IC50
T1 construct: purchased Invitrogen PR4768C
Protocol: (§1) Enzymatic Binding Assay Protocol for CDK1, CDK2, CDK5 and CDK7
(§2) Inhibition activity of the respective compound on CDK kinase under Km value of ATP was tested in FRET based The LANCE® Ultra kinase assay (Perkin Elmer), which uses a ULight™-labeled peptide substrate and an appropriate Europium-labeled anti-phospho-antibody. […] After 1 min centrifugation at 1000 rpm, purified CDKs/Cyclin complex were added with the following concentrations respectively. […] Data were analyzed using XL Fit software.

CDK2/Cyclin A = target: T2, CDK2/Cyclin A (Homo sapiens, UniProt P24941); test: Enzymatic assay for CDK2 (LANCE Ultra kinase assay, FRET based); conditions: ATP at Km
T2 construct: purchased Invitrogen PV6290
Protocol: as §1
(§3) Inhibition activity of the respective compound on CDK kinase under Km value of ATP was tested in FRET based The LANCE® Ultra kinase assay (Perkin Elmer), which uses a ULight™-labeled peptide substrate and an appropriate Europium-labeled anti-phospho-antibody. Test compounds were made with DMSO solutions, and then 4-fold serial dilutions for 8 doses were prepared using automated liquid handler (POD™ 810, Labcyte) and 80 nL/well of diluted compound solutions were added into the 384-well plates (Greiner, Cat #784075). And then 68 nM of ULight-MBP peptide (Perkin Elmer, Cat #TRF0109-M) and 5 ul/well of ATP (Sigma, Cat #A7699) were added to the plate. After 1 min centrifugation at 1000 rpm, purified CDKs/Cyclin complex were added with the following concentrations respectively. 24 uM for CDK1/Cyclin B (Invitrogen, Cat #PR4768C), 22 uM for CDK2/Cyclin A (Invitrogen, Cat #PV6290), 10 uM for CDK5/p25 (Invitrogen, Cat #PR8543B) and […] for CDK7/Cyclin H/MNAT1 (Invitrogen, Cat #PR6749B) were added to each corresponding plate for CDK1, CDK2, CDK5 and CDK7. Incubate at 23° C. for 60 min and then Eu-labeled anti-phospho-Myelin Basic Protein (PE, Cat #TRF0201-M) and EDTA (Invitrogen, Cat #15575038) mixture in Lance Detection Buffer (Perkin Elmer, Cat #CR97100) was added in each well. After additional incubation at 23° C. for 60 min, test articles were measured the fluorescence using Envision leader (Perkin Elmer, USA) [Laser as excitation light; […] as the first and the second emission filter]. Data were analyzed using XL Fit software.

CDK5/p25 = target: T3, CDK5/p25 (Homo sapiens, UniProt Q00535); test: Enzymatic assay for CDK5 (LANCE Ultra kinase assay, FRET based); conditions: ATP at Km
T3 construct: purchased Invitrogen PR8543B
T3 sequence (Q00535 whole entry): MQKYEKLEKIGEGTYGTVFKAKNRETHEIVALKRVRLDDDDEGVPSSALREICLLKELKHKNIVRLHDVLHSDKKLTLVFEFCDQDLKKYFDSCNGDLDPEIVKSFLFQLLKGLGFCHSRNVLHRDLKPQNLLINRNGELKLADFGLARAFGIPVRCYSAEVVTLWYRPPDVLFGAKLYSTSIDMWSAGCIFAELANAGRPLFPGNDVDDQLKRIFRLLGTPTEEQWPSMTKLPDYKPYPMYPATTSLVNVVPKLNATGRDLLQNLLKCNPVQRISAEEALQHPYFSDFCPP
T3 sequence (Q15078 99-307 partner limits assumed): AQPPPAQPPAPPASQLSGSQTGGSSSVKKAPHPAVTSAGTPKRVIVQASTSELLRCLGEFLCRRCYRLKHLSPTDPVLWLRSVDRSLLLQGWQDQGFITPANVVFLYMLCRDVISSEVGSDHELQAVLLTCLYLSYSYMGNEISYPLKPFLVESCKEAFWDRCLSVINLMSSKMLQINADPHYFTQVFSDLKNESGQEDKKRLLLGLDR
Protocol: as §1, §3

CDK7/Cyclin H/MNAT1 = target: T4, CDK7/Cyclin H/MNAT1 (Homo sapiens, UniProt P50613); test: Enzymatic assay for CDK7 (LANCE Ultra kinase assay, FRET based); conditions: for IC50: ATP at Km
T4 construct: purchased Invitrogen PR6749B
T4 sequence (P50613 whole entry): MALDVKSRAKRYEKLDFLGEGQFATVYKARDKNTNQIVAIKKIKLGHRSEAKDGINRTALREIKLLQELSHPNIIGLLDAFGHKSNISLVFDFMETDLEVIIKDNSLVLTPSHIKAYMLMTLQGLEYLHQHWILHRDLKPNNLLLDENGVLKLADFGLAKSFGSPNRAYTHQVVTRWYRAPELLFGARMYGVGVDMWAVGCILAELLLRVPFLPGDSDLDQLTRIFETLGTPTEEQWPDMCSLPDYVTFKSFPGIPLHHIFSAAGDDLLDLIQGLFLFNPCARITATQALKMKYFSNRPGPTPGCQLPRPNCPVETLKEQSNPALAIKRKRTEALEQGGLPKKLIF
T4 sequence (P51946 whole entry partner): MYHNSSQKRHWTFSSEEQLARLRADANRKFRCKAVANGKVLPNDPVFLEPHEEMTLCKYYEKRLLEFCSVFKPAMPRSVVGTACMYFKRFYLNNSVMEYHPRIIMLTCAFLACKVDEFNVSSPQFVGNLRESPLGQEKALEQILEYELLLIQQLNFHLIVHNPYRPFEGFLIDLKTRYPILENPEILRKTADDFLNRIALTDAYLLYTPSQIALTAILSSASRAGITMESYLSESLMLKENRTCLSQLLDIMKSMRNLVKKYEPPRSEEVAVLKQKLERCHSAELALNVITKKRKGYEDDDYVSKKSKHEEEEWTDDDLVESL
T4 sequence (P51948 whole entry partner): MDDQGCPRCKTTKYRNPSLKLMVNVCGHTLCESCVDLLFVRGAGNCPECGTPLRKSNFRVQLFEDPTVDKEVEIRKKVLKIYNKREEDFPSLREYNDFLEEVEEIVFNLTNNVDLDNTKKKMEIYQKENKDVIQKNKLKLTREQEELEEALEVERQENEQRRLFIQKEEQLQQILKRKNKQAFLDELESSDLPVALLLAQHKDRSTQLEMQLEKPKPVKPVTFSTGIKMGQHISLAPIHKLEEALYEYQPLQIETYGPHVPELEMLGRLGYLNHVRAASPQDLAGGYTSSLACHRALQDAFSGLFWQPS
Protocol: as §1, §2

T1 sequence (P06493 whole entry): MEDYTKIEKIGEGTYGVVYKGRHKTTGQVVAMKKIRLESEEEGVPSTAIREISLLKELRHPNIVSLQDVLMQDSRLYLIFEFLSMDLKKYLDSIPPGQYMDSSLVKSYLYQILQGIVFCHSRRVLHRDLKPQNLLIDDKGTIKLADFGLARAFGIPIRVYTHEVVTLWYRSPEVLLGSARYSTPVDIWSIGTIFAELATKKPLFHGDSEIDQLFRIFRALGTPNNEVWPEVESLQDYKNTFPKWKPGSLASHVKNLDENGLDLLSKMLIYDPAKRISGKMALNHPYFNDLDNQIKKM
T1 sequence (P14635 whole entry partner): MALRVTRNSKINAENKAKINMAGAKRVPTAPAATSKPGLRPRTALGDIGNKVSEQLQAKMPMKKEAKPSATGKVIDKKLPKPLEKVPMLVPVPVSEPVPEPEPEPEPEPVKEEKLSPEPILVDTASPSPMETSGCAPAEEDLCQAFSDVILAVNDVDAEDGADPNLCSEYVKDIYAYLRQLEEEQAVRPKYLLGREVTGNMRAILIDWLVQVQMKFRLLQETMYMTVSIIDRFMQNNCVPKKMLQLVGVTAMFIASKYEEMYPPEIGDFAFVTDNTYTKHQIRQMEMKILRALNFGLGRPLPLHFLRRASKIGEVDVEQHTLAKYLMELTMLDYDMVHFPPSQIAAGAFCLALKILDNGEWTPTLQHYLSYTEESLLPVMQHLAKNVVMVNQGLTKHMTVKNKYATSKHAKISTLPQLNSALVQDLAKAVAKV

| Structure (SMILES) | IC50 (CDK1/Cyclin B) | IC50 (CDK2/Cyclin A) | IC50 (CDK5/p25) | IC50 (CDK7/Cyclin H/MNAT1) | CDK1/CDK7: Selectivity of CDK7 inhibition over CDK1 inhibition (CDK7/Cyclin H/MNAT1) | CDK2/CDK7: Selectivity of CDK7 inhibition over CDK2 inhibition (CDK7/Cyclin H/MNAT1) | CDK5/CDK7: Selectivity of CDK7 inhibition over CDK5 inhibition (CDK7/Cyclin H/MNAT1) |
| --- | --- | --- | --- | --- | --- | --- | --- |
| COC1CCC(CNc2nc(NCc3ccccc3-c3nccc4cc(NC(=O)/C=C/CN(C)C)ccc34)n3ncc(C(C)C)c3n2)CC1 (stereo not shown) [Compound 136] | > 1000 nM | > 1000 nM | > 1000 nM | 100 to 1000 nM | B (B indicates 50 < [fold] ≤ 500) | B (B indicates 50 < [fold] ≤ 500) | B (B indicates 50 < [fold] ≤ 500) |
| Cc1cccc(-c2ccc3cccc(NC(=O)/C=C/CN(C)C)c3n2)c1CNc1nc(NCC2CCNCC2)nc2c(C(C)C)cnn12 [Compound 138] | > 1000 nM | > 1000 nM | > 1000 nM | < 100 nM | A (A indicates [fold] > 500) | A (A indicates [fold] > 500) | A (A indicates [fold] > 500) |
| Cc1cccc(-c2cc3cccc(NC(=O)/C=C/CN(C)C)c3[nH]2)c1CNc1nc(NCC2CCNCC2)nc2c(C(C)C)cnn12 [Compound 139] | > 1000 nM | > 1000 nM | > 1000 nM | < 100 nM | A (A indicates [fold] > 500) | A (A indicates [fold] > 500) | A (A indicates [fold] > 500) |
| CO[C@H]1CC[C@H](Nc2nc(NCc3c(C)cccc3-n3ccc4cc(NC(=O)/C=C/CN(C)C)ccc43)n3ncc(C(C)C)c3n2)CC1 [Compound 140] | > 1000 nM | > 1000 nM | > 1000 nM | 100 to 1000 nM | B (B indicates 50 < [fold] ≤ 500) | B (B indicates 50 < [fold] ≤ 500) | B (B indicates 50 < [fold] ≤ 500) |
| C=C(F)C(=O)Nc1cccc2cc(-c3cccc(C)c3CNc3nc(NCC4CNCCO4)nc4c(C(C)C)cnn34)[nH]c12 (stereo not shown) [Compound 141] | > 1000 nM | > 1000 nM | > 1000 nM | < 100 nM | A (A indicates [fold] > 500) | A (A indicates [fold] > 500) | A (A indicates [fold] > 500) |
| COC[C@H]1CC[C@H](Nc2nc(NCc3ccccc3-c3nccc4cc(NC(=O)/C=C/CN(C)C)ccc34)n3ncc(C(C)C)c3n2)CC1 [Compound 142] | > 1000 nM | > 1000 nM | > 1000 nM | < 100 nM | A (A indicates [fold] > 500) | A (A indicates [fold] > 500) | A (A indicates [fold] > 500) |
| C=C(F)C(=O)Nc1ccc2c(-c3ccccc3CNc3nc(N[C@H]4CC[C@H](CS(=O)(=O)NC)CC4)nc4c(C(C)C)cnn34)nccc2c1 [Compound 143] | > 1000 nM | > 1000 nM | > 1000 nM | 100 to 1000 nM | B (B indicates 50 < [fold] ≤ 500) | B (B indicates 50 < [fold] ≤ 500) | B (B indicates 50 < [fold] ≤ 500) |
| CN[C@H]1CC[C@H](Nc2nc(NCc3ccccc3-c3nccc4cc(NC(=O)/C=C/CN(C)C)ccc34)n3ncc(C(C)C)c3n2)CC1 [Compound 145] | > 1000 nM | > 1000 nM | > 1000 nM | < 100 nM | A (A indicates [fold] > 500) | A (A indicates [fold] > 500) | A (A indicates [fold] > 500) |

Now from value to compound:

| IC50 (CDK1/Cyclin B) | IC50 (CDK2/Cyclin A) | IC50 (CDK5/p25) | IC50 (CDK7/Cyclin H/MNAT1) | CDK1/CDK7: Selectivity of CDK7 inhibition over CDK1 inhibition (CDK7/Cyclin H/MNAT1) | CDK2/CDK7: Selectivity of CDK7 inhibition over CDK2 inhibition (CDK7/Cyclin H/MNAT1) | CDK5/CDK7: Selectivity of CDK7 inhibition over CDK5 inhibition (CDK7/Cyclin H/MNAT1) | Structure (SMILES) |
| --- | --- | --- | --- | --- | --- | --- | --- |
| > 1000 nM | > 1000 nM | > 1000 nM | 100 to 1000 nM | B (B indicates 50 < [fold] ≤ 500) | B (B indicates 50 < [fold] ≤ 500) | B (B indicates 50 < [fold] ≤ 500) | CO[C@H]1CC[C@H](Nc2nc(NCc3c(C)cccc3-c3cc4cccc(NC(=O)/C=C/CN(C)C)c4[nH]3)n3ncc(C(C)C)c3n2)CC1 [Compound 129] |
| > 1000 nM | > 1000 nM | > 1000 nM | < 100 nM | A (A indicates [fold] > 500) | A (A indicates [fold] > 500) | A (A indicates [fold] > 500) | CO[C@H]1CNCC[C@@H]1CNc1nc(NCc2ccccc2-c2nccc3cc(NC(=O)/C=C/CN(C)C)ccc23)n2ncc(C(C)C)c2n1 [Compound 131] |
| > 1000 nM | > 1000 nM | > 1000 nM | < 100 nM | A (A indicates [fold] > 500) | A (A indicates [fold] > 500) | A (A indicates [fold] > 500) | CO[C@H]1CC[C@H](Nc2cc(NCc3ccccc3-c3nccc4cc(NC(=O)/C=C/CN(C)C)ccc34)n3ncc(C(C)C)c3n2)CC1 [Compound 132] |
| > 1000 nM | > 1000 nM | > 1000 nM | < 100 nM | A (A indicates [fold] > 500) | A (A indicates [fold] > 500) | A (A indicates [fold] > 500) | CNS(=O)(=O)C[C@H]1CC[C@H](Nc2nc(NCc3ccccc3-c3nccc4cc(NC(=O)/C=C/CN(C)C)ccc34)n3ncc(C(C)C)c3n2)CC1 [Compound 134] |
| > 1000 nM | > 1000 nM | > 1000 nM | 100 to 1000 nM | B (B indicates 50 < [fold] ≤ 500) | B (B indicates 50 < [fold] ≤ 500) | B (B indicates 50 < [fold] ≤ 500) | CC#CC(=O)Nc1ccc2c(-c3ccccc3CNc3nc(N[C@H]4CC[C@H](OC)CC4)nc4c(C(C)C)cnn34)nccc2c1 [Compound 135] |
